Laboratory results as given in article PMC5181585, “UMAMIT14 is an amino acid exporter involved in phloem unloading in Arabidopsis roots” (Journal of Experimental Botany, 2016).

Molecular target: T1, UMAMIT18 (Arabidopsis thaliana, UniProt Q9LPF1)
T1 construct: gene At1g44800; cDNA in pDR196-Ws, expressed in yeast 22delta10alpha
T1 sequence (Q9LPF1 1-370): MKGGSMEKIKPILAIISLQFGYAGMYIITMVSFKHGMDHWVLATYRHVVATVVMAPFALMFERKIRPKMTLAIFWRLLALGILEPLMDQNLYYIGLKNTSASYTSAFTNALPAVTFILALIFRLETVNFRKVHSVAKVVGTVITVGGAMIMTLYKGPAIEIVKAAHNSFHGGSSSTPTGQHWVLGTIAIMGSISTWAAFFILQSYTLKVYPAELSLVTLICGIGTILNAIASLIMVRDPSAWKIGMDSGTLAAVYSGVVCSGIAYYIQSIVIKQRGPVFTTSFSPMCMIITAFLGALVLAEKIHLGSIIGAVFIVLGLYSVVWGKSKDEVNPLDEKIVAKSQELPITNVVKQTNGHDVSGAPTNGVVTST
Experiment: amino acid secretion into medium by yeast, UPLC
Format: cell-based
Settings: export, 22 h growth in minimal medium, yeast 22delta10alpha

Structure (SMILES)	amino acid secretion into medium by yeast, UPLC (Gln peak not resolved from Arg)	amino acid secretion into medium by yeast, UPLC
NC(=O)CC[C@H](N)C(=O)O [Gln]	Gln, Val, and Ile represented a larger proportion of the secreted amino acids for UMAMIT18	
CC(C)[C@H](N)C(=O)O [Val]		Gln, Val, and Ile represented a larger proportion of the secreted amino acids for UMAMIT18
